The values below come from US9144594B2, “Cathepsin L mediated diseases and associated methods and products” (University of Miami, priority 2005, dated 2015).

“Also recorded” adds a separate entry of the source. Where a SMILES comes first, the peptide text is derived from it. The star is where a group is joined. Cbz = O=C(OCc1ccccc1)*; CH2F = FC*

One experiment deals with LPS-induced proteinuria. Description: LPS-induced proteinuria in mice treated with inhibitors, albuminuria by gel quantification. Format: in vivo, mouse. Conditions: FIG. 29A. The protocol:
Proteinuria was induced in male B6 mice (n=5 per group) by LPS injection. The mice were injected the mice with 250 μg ultrapure LPS (InvivoGen) intraperitoneally (i.p.) and started treatment with 200 μg cathepsin L inhibitor VI (Calbiochem) 30 min after disease induction. The LPS and inhibitor injections were repeated at 24 h and the mice were sacrificed at 48 h.
To quantify the level of proteinuria, urine was diluted with double-distilled water, boiled the diluted urine in sample buffer and analyzed the samples by NuPAGE (Invitrogen) followed by Coomassie blue staining BSA standards (from 0.125 to 2.0 μg) were run on the same gel and were used to identify and quantify urinary albumin bands. The albumin bands were quantified with ImageJ software (NIH) and determined the creatinine abundance from the same urine samples with a commercial kit (Cayman Chemical) according to the manufacturer's protocol.

Experiment [1] has as its system CatL-mediated degradation of synaptopodin. Description: Western blot of isolated glomeruli, LPS-induced degradation of synaptopodin and RhoA. Conditions: FIG. 29B. Format: in vivo, mouse. From the text:
FIG. 29A: SDS-PAGE analysis of urines from control and LPS-injected mice (top). Quantitative analysis of albuminuria (bottom). FIG. 29B: Western blot analysis of isolated glomeruli showing that LPS causes the degradation of endogenous synaptopodin and RhoA.
In general terms: In western blotting, separated proteins are transferred to a membrane and probed.

The subject of the next experiment is cathepsin L. Description: Generation of dynamin p40 fragment in LPS-treated cultured podocytes (Western blot). Format: cell-based, mouse. Conditions: LPS-treated podocytes expressing dynWT. From the text: Next, it was examined whether cathepsin L could process dynamin in vivo, and whether this processing required GTP binding by dynamin. To this end, cultured podocytes were infected with adenoviruses expressing dynWT as well as different dynamin mutants. Infected podocytes were subsequently treated with LPS. LPS treatment increases cathepsin L presence and the activity in the cytosol (FIG. 3), and thus is expected to induce generation of the 40 kD proteolytic fragment. Respective cytosols were probed using the GTPase antibodies in order to detect N-terminal 40 kD proteolytic fragment. Expression of dynWT in podocytes treated with LPS identified proteolytic fragments that traveled with the same mobility as fragments observed in vitro. […] Furthermore, significant amount of p40 was present in cells expressing dynR725A prior to LPS treatment. […] Given complete protection of cathepsin L cleavage by GTPγS, it was reasoned that LPS treatment was somehow inducing dynR725A self-assembly, which in turn was protecting dynR725A from cathepsin L cleavage. This in turn would explain ability of dynR725A to counteract LPS and PAN treatment (FIG. 1D). […] Biochemical difference between dynWT, dynK694A and dynR725A is that only dynR725A is impaired in the rate of GTP-hydrolysis of assembled dynamin. This is important because GTP-hydrolysis drives disassemble of dynamin. Thus, while all three dynamins are predicted to self-assemble by LPS treatment, only dynR725A will stay assembled due to its inability to hydrolyze GTP. Once assembled dynWT and dynK694A hydrolyze GTP they will fall apart and thus become accessible for cathepsin L cleavage.
To explore CatL-mediated dynamin cleavage in vivo, cultured podocytes were infected with adenoviruses encoding different dynamin mutants and subsequently treated with LPS (FIG. 19G). […] To confirm the identity of the cleavage site, the ELSGGA (SEQ ID NO.29) sequence was mutated to EQSVGA (SEQ ID NO.31) (for simplicity, the mutant is subsequently referred to as dynL356Q). […] Finally, a GTPase-defective dynamin mutant was examined. Dynamin carrying a mutation in its […] (dynR725A) oligomerizes, but is impaired in assembly-stimulated GTP-hydrolysis. DynR725A is therefore predicted to live longer in the assembled state.
Podocytes were grown under non-permissive conditions to 70% confluence. Cells were washed twice with 1×PBS and infected with 1.2 ml of serum-free DMEM media containing 100 μl transactivator virus, 100 μl virus expressing dyn1 or dyn2. After 2 h of infection at 37° C., media containing virus was replaced with full DMEM. If cells were treated with LPS or PAN, 50 μg/ml of LPS or 50 μg/ml PAN was added at this point. 18-24 h post-infection, cells were detached using trypsin and processed either for subcellular fractionation or tested in the motility assays as described in (Reiser et al., J Biol Chem 279, 34827-34832 (2004)). When stated, 20 μM of Z-FF-FMK CatL specific inhibitor (Calbiochem, San Diego, Calif.) was added simultaneously with addition of LPS.

The subject of another experiment is podocytes. Description: Scrape wound (wound healing) assay of podocytes. Conditions: pretreatment 24 h; untreated cells 31%. The format is cell-based, mouse. The protocol: Functionally, lipid raft-associated uPAR has been implicated in cell migration (21). The motility of cultured podocytes was analyzed to explore the consequences of increased uPAR expression in lipid rafts. First, podocyte cell lines were established with stable knock down of uPAR expression using siRNA. The efficiency of uPAR-siRNA was confirmed by both semi-quantitative RT-PCR (>90% inhibition) and Western blotting (>70%) (FIG. 12A). A modified multi-well Boyden chamber assay was used to assess the random migration of differentiated podocytes. […] To test whether this effect was mediated by uPAR, uPAR knock-down studies were performed by stably transfecting uPAR-siRNA into podocytes. […] The distance from the wound margin migrated by cells was related to the total distance of the scar and expressed as percentage closure 12 h after post-wound incubation. […]
To study the directional movement of podocytes, wound healing assay was performed. […] The cell migratory distance was calculated by averaging the distance from the wound edge to the DAPI-labeled nucleus of the maximally migrated cell in five distinct border zones. The percentage of closure was calculated as migratory distance from both sides versus initial wound track width.

In another experiment the test system is CatL. Description: Cathepsin activity in LPS-treated podocytes with fluorogenic substrate CV-(FR)2. The format is cell-based, mouse. Conditions: after LPS administration. From the text: (§1) Finally, it was examined whether CatL can be enzymatically active in the cytosol. Subcellular sites of CatL and CatB activity were visualized by a fluorogenic substrate, CV-(FR)2, which emits light upon cleavage by CatL. In untreated podocytes, protease activity was low and confined to perinuclear lysosomes (FIG. 17F).

For the next experiment, the target named is T1, CatB (Mus musculus, UniProt P10605).
T1 construct: endogenous in cells; host or cells: cultured mouse podocytes
T1 sequence (P10605 80-333): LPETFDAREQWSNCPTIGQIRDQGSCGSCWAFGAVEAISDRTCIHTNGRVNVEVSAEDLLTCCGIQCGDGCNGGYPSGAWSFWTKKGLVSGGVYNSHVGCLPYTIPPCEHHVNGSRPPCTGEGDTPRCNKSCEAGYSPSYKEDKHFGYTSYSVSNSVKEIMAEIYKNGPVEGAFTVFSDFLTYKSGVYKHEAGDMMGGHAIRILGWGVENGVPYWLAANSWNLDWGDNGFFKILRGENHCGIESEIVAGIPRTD
As to the kind of experiment: Cathepsin activity in podocytes with fluorogenic substrate CV-(FR)2, CatB. The format is cell-based.
Text: as §1

The next experiment has as its system lysosomes. As to the kind of experiment: Lysosomal leakage assay using Lucifer Yellow in podocytes. Format: cell-based, mouse. From the text: Next the reason for the relocalization of CatL in LPS treated podocytes was examined. To examine the possibility of lysosomal leakage, the localization of Lucifer Yellow, a cellular dye that is readily taken up into lysosomes was examined.

`CC(C)C[C@H](NC(=O)[C@H]1O[C@@H]1C(=O)O)C(=O)NCCCCN=C(N)N` [E64]: the “LPS-induced proteinuria (albuminuria), in words” value in the experiment on LPS-induced proteinuria is “ameliorate LPS-induced proteinuria”. Moreover, the “LPS-induced degradation of synaptopodin and RhoA, in words” value in experiment [1] is “block the LPS-induced degradation of synaptopodin and RhoA”. Besides, the “dynamin cleavage / p40 generation with inhibitor, in words” value in the experiment with cathepsin L is on record as “cleavage could be blocked”.

For `CN(C)c1ncnc2c1ncn2[C@@H]1O[C@H](CO)[C@@H](N)[C@H]1O` [PAN, puromycin aminonucleoside], the “percentage closure 12 h after post-wound incubation” value in the experiment with podocytes was found to be 63%.

Turning to `O=C(NC(Cc1ccccc1)C(=O)NC(Cc1ccccc1)C(=O)CF)OCc1ccccc1` (stereo not drawn) [Z-FF-FMK, Z-Phe-Phe-fluoromethyl ketone, reference compound] (Cbz-Phe-Phe-CH2F; configuration not given here), the “dynamin cleavage / p40 generation with inhibitor, in words” value in the experiment on cathepsin L is “resulted specifically in the loss of p40; also recorded: inhibited”. Moreover, the “extralysosomal cathepsin activity, in words” value in the experiment with CatL is given as “vast majority of extralysosomal cathepsin activity after LPS administration was sensitive”. The “inhibition of CatB, in words” value against CatB is recorded as “does not inhibit CatB”.

Consider `CCCCCCCCCCCCC/C=C/[C@@H](O)[C@@H](N)CO` [sphingosine], for which, in the experiment on lysosomes, the “lysosomal integrity (Lucifer Yellow), in words” value was “led to the expected lysosomal rupture”.
